Source: patent publication US20130287918A1, “MICROBICIDAL COMPOSITION” (DUPONT NUTRITION DIOSCIENCES APS, priority 2010, published 2013)

What was measured:
Type in all cases: cell-based
pool of 4 yeast species = test: Ranch dressing challenge study, yeast count on YGC agar; details: for Cell counts on YGC-agar to determine the yeast growth: 0.1% in Ranch dressing, inoculation 500 CFU/g, 20° C.
Source text: Samples of the regular ranch dressing (formula in table 24) with and without the experimental blend were produced in the Danisco Culinary Application Laboratory, Brabrand.
Each batch was split (scheme table 23) in probes of 90 gram and placed in sterile jars. 36 probes of each batch were inoculated with the desired level of yeast and 5 probes of each batch were inoculated with mould spores, respectively at a targeted inoculation rate of 500 to 1000 CFU/g.
(§1) The viscous products were thoroughly mixed (2 minutes) within 10 minutes of inoculation to ensure that the inoculum was evenly distributed throughout the product. One sample remained un-inoculated and was used as negative control to monitor the native contamination flora. All samples were incubated at ambient temperature (20° C.) and assayed for yeast, plated on an appropriate yeast medium, until confirmed failure (≧1.0E+05 CFU/g) or until visible mould growth, respectively. In parallel, the growth of lactic acid bacteria and total cell count were monitored on MRS and PCA in all the batches and the non-inoculated blind, respectively.
(§2) In total 8 strains, from Danisco's in-house Culture Collection (DCS) (Danisco A/S, Brabrand, Denmark) were employed as 1 yeast and 1 mould pool in the respective Ranch dressing. Originally, they were isolated e.g. from spoiled ketchup, mayonnaise, Salsa dressing or obtained from official culture collections such as DMSZ.
(§3) Before each experiment, a stock culture of each yeast, maintained at −86° C. in suitable broth containing glycerol 50% (v/v), was propagated through two consecutive growth cycles in suitable media (YGC-agar (VWR) pH 5.1+0.2; YM Broth (Becton, Dickinson and company) at pH 6.0±0.2 at and temperature (25° C.). The overnight cultures are diluted in saline solution to obtain working cultures. A cocktail of the yeasts was generated by adding equal cell counts of each culture into a sterile container and mixed appropriately. The yeast cocktail was diluted and inoculated into the product in order to achieve the final desired concentration. Pool counts were verified via plate count. Mould spores were prepared as follows: approx. 2 ml of sterile demineralised water was used to wash the spores off an out-grown mould cultivar (minimum 5 day old plate). This suspension is transferred to a sterile container. Pool counts were verified via plate count.
The Ranch dressing was assayed a time zero, day 3, day 7, day 14, bi-weekly thereafter until week 13 (day 90) and every 4 to 6 weeks until week 29. CFU/g was detected for 3 samples from each batch inoculated with yeast. Before each sampling (closed jar), the sample was thoroughly mixed. 10 gram sample were aseptically pulled from each jar and diluted with peptone water. Each sample was stomached (1 min, normal setting) plated in duplicate onto YGC agar (VWR), PC agar and MRS agar (VWR), and incubated at 25° C. for 5 and 7 days and 37° C. for 3 days, respectively.

[1] = system: pool of 4 yeast species (Candida tropicalis DCS 604, Zygosaccharomyces bailii DCS 1167 and DCS 1172, Pichia spp DCS 1175); test: Salsa sauce fresh challenge study, yeast count on YGC agar; details: Salsa sauce 4° C., FP1000-D1 1%, FP1000-D2 1%, MG200 1%, Potassium Sorbate 0.1%
Source text: Samples of the Salsa sauce (formula in table 17) with and without the experimental blend were produced. […] It needs to be mentioned that the Salsa sauce was not pasteurized.
Each batch was split (scheme table 15) in probes of 90 gram and placed in sterile jars. 21 probes of each batch were inoculated with the desired level of yeast and 5 probes of each batch were inoculated with mould spores, respectively at a targeted inoculation rate of 300 to 800 CFU/g.
as §1, with “incubated in the dark” for “incubated”, “chilled” for “ambient”, “(4°” for “(20°”, “(≧1.0E+06” for “(≧1.0E+05”
as §2, with “strains, available” for “strains,”, “Danisco's” for “Danisco's in-house”, “Salsa sauce.” for “Ranch dressing.”, “mayonnaise.” for “mayonnaise,”
as §3, with “Company)” for “company)”, “count.” for “count. Mould spores were prepared as follows: approx. 2 ml of sterile demineralised water was used to wash the spores off an out-grown mould cultivar (minimum 5 day old plate). This suspension is transferred to a sterile container. Pool counts were verified via plate count.”
(§4) The Salsa sauces were assayed at time zero, day 3, day 7, day 14 and were plated bi-weekly thereafter until day 92. CFU/g was detected for 3 samples from each batch inoculated with yeast. Before each sampling (closed jar), the sample was thoroughly mixed, 10 gram sample were aseptically pulled from each jar and diluted with peptone water. Each sample was stomached (1 min, normal setting) plated in duplicate onto YGC agar (VWR) and MRS (VWR), and incubated at 25° C. for 5 days and 37° C. for 3 days, respectively.

[2] = system: native flora of Lactic acid bacteria; test: Salsa sauce fresh challenge study, native lactic acid bacteria on MRS-agar; details: for Cell counts on MRS-agar (native Lactic acid bacteria): Salsa sauce 4° C., FP1000-D1 1%, FP1000-D2 1%, MG200 1%, Potassium Sorbate 0.1%
Description: as §1, with “incubated in the dark” for “incubated”, “chilled” for “ambient”, “(4°” for “(20°”, “(≧1.0E+06” for “(≧1.0E+05”
as §4

SMILES: C/C=C/C=C/C(=O)[O-].[K+] [Potassium Sorbate, potassium sorbate]
- initial reduction of the inoculated cell load (pool of 4 yeast species; Ranch dressing 20° C., FP1000 D1/D2 1%, MicroGARD 200 1%, potassium sorbate 0.1%): 2 log
- Cell counts on YGC-agar to determine the yeast growth (pool of 4 yeast species; day 0): 3.20E+02 CFU/g
- Cell counts on YGC-agar to determine the yeast growth (pool of 4 yeast species; day 3): 1.70E+02 CFU/g
- Cell counts on YGC-agar to determine the yeast growth (pool of 4 yeast species; day 7): 7.50E+01 CFU/g
- Cell counts on YGC-agar to determine the yeast growth (pool of 4 yeast species; day 14): 1.00E+01 CFU/g
- Cell counts on YGC-agar to determine the yeast growth (pool of 4 yeast species; day 28): 1.00E+01 CFU/g
- Cell counts on YGC-agar to determine the yeast growth (pool of 4 yeast species; day 42): 1.00E+01 CFU/g
- Cell counts on YGC-agar to determine the yeast growth (pool of 4 yeast species; day 56): 1.00E+01 CFU/g
- Cell counts on YGC-agar to determine the yeast growth (pool of 4 yeast species; day 64): 1.00E+01 CFU/g
- Cell counts on YGC-agar to determine the yeast growth (pool of 4 yeast species; day 90): 1.00E+01 CFU/g
- Cell counts on YGC-agar to determine the yeast growth (pool of 4 yeast species; day 157): 1.00E+01 CFU/g
- Cell counts on YGC-agar to determine the yeast growth (pool of 4 yeast species; day 198): 1.00E+01 CFU/g
- Cell counts on YGC-agar (yeast growth) ([1]; day 0): 4.75E+02 CFU/g
- Cell counts on YGC-agar (yeast growth) ([1]; day 2): 2.50E+02 CFU/g
- Cell counts on YGC-agar (yeast growth) ([1]; day 5): 1.00E+02 CFU/g
- Cell counts on YGC-agar (yeast growth) ([1]; day 7): 6.80E+01 CFU/g
- Cell counts on YGC-agar (yeast growth) ([1]; day 14): 4.80E+01 CFU/g
- Cell counts on YGC-agar (yeast growth) ([1]; day 28): 1.45E+02 CFU/g
- Cell counts on YGC-agar (yeast growth) ([1]; day 41): 3.30E+01 CFU/g
- Cell counts on YGC-agar (yeast growth) ([1]; day 55): 3.20E+01 CFU/g
- Cell counts on YGC-agar (yeast growth) ([1]; day 93): 3.30E+01 CFU/g
- time after which no more colonies were detected on MRS-agar ([2]; Salsa sauce, potassium sorbate 0.1%): 42 days
- Cell counts on MRS-agar (native Lactic acid bacteria) ([2]; day 0): 4.75E+02
- Cell counts on MRS-agar (native Lactic acid bacteria) ([2]; day 2): 1.50E+03
- Cell counts on MRS-agar (native Lactic acid bacteria) ([2]; day 5): 1.40E+02
- Cell counts on MRS-agar (native Lactic acid bacteria) ([2]; day 7): 1.30E+03
- Cell counts on MRS-agar (native Lactic acid bacteria) ([2]; day 14): 5.38E+02
- Cell counts on MRS-agar (native Lactic acid bacteria) ([2]; day 28): 4.30E+01
- Cell counts on MRS-agar (native Lactic acid bacteria) ([2]; day 41): <1.00E+01
- Cell counts on MRS-agar (native Lactic acid bacteria) ([2]; day 55): <1.00E+01
- Cell counts on MRS-agar (native Lactic acid bacteria) ([2]; day 93): <1.00E+01
